Like-named read-outs stand apart in the source and are kept apart here.
Experiments:
[1] = Prodrug stability in freshly withdrawn porcine intestinal fluid; type: in vitro ADME; details: for Prodrug remaining at 3 h: porcine intestinal fluid pH 6.8, 37° C., in % (unit assumed)
Source text: Many of the peptidases in the intestinal lumen may not be present in the USP simulated intestinal fluid preparations previously described. […] The prodrugs evaluated were selected on the basis of adequate pharmacokinetics (see Example 8).

[2] = Prodrug stability in simulated gastric fluid; details: 37° C., pH 1.1, HPLC
Description: (§1) The remaining concentrations of the prodrugs were then assayed by H PLC.

[3] = Prodrug stability in simulated intestinal fluid; details: 37° C., pH 6.8, HPLC
Description: as §1

[4] = Comparative pharmacokinetic screening study in the monkey (relative Cmax of guanfacine); details: oral gavage, monkey screening study
Description: Blood samples were taken on 4 sampling occasions at various times up to 6 hours after administration and submitted to analysis for the parent drug and prodrug using a qualified LC-MS-MS assay.

[5] = Pharmacokinetics in rat hepatic portal and tail veins after oral administration; type: in vivo; details: for AUC / Cmax: po, 1 mg/kg
Description: Rats were surgically prepared under isofluorane anaesthesia by attaching a silicon catheter to the portal vein then exteriorising it at the nape of the neck with a blood collection port attached.
At each sampling time serial point blood samples (approximately 0.2 mL) were taken simultaneously from the lateral tail vein cannula and the hepatic portal cannula. After collection of the final blood sample each animal was killed by cervical dislocation. Blood samples were collected at 15, 30 minutes and 1, 2, 4, 8 and 24 hours post dose.
Pharmacokinetic parameters in portal and systemic plasma were derived by non-compartmental analysis (linear/logarithmic trapezoidal) using WinNonlin (Version 4.1) software.

[6] = system: gastrointestinal transit of a charcoal meal in the rat; assay: Charcoal propulsion test (gut motility) in rat; type: in vivo; details: oral
Description: The effect of a drug on gut motility can be studied by means of the charcoal propulsion test.
The method used was based on that described by Takemori et al. (J. Pharmacol. Exp. Ther. 169:39, 1969). Test treatments were administered orally 60 minutes prior to an oral dose of a 10% suspension of charcoal in 2.5% gum Arabic (2 ml/kg). Twenty minutes after dosing with charcoal, the rats were sacrificed and the entire gastrointestinal tract was removed quickly and carefully. The distance that the charcoal meal had traveled toward the caecum was measured and expressed as a percentage of the total gut length.

Row | Compound | % prodrug remaining following incubation for 1 h in simulated gastric fluid pH 1.1 [2] [%] | % prodrug remaining following incubation for 2 h in simulated intestinal fluid pH 6.8 [3] [%] | further results
1 | CNCC(=O)N[C@@H](CCC(=O)NC(=N)NC(=O)Cc1c(Cl)cccc1Cl)C(=O)O [Compound 7, Guanfacine ((S)-γ-Glutamate-Sarcocine) Amide] | 79 | 66 | Prodrug remaining at 3 h [1]: 48.9 ± 0.8
2 | CN(CC(=O)O)C(=O)NC(=N)NC(=O)Cc1c(Cl)cccc1Cl [Compound 9, Guanfacine Sarcosine Urea] | 101 | 105 | prodrug levels in plasma (in words) [4]: high prodrug levels
3 | CC(C)[C@@H](N)C(=O)NCCC(=O)NC(=N)NC(=O)Cc1c(Cl)cccc1Cl [Compound 11, Guanfacine (β-Alanine-(R)-Valine) Amide] | 79 | 104 | stability in porcine intestinal fluid (in words) [1]: high stability; Prodrug remaining at 3 h [1]: 91.3 ± 2.6; prodrug levels in plasma (in words) [4]: detectable prodrug levels in plasma
4 | CC(C)[C@H](N)C(=O)N[C@@H](COC(=O)NC(=N)NC(=O)Cc1c(Cl)cccc1Cl)C(=O)O [Compound 17, Guanfacine ((S)-Serine-(S)-Valine) Carbamate] | 93 | 78 | stability in porcine intestinal fluid (in words) [1]: very unstable; prodrug levels in plasma (in words) [4]: total absence of prodrug in the plasma
5 | CC(C)[C@H](N)C(=O)NCCOC(=O)NC(=N)NC(=O)Cc1c(Cl)cccc1Cl [Compound 26, Guanfacine (Ethanolamine-(S)-Valine) Carbamate] | 97 | 91 | stability in porcine intestinal fluid (in words) [1]: very unstable; Prodrug remaining at 3 h [1]: 13.8 ± 0.6
6 | O=C(O)CC[C@@H]1N=C(NC(=O)Cc2c(Cl)cccc2Cl)NC1=O [Compound 37, Guanfacine-(S)-Glutamic Cyclic Adduct] | 58 | 110 | prodrug levels in plasma (in words) [4]: high prodrug levels
7 | CCC(C)[C@@H](N)C(=O)NCCCC(=O)NC(=N)NC(=O)Cc1c(Cl)cccc1Cl (stereo partly drawn) [Compound 50, Guanfacine (GABA-(R)-Isoleucine) Amide] | 85 | 81 | 
8 | C[C@H]1N=C(NC(=O)Cc2c(Cl)cccc2Cl)NC1=O [Compound 51, Guanfacine-(R)-Alanine Cyclic Adduct] | 80 | 103 | 
9 | N=C(NC(=O)Cc1c(Cl)cccc1Cl)NC(=O)c1ccc(N)cc1 [Compound 52, Guanfacine PABA Amide] | 84 | 97 | stability in porcine intestinal fluid (in words) [1]: high stability; Prodrug remaining at 3 h [1]: 87.77 ± 5.80
10 | N=C(NC(=O)Cc1c(Cl)cccc1Cl)NC(=O)Nc1ccc(C(=O)O)cc1 [Compound 53, Guanfacine PABA Urea] | 101 | 100 | 
11 | CNCC(=O)N[C@H](C(=O)O)[C@@H](C)OC(=O)NC(=N)NC(=O)Cc1c(Cl)cccc1Cl [Compound 63, Guanfacine ((R,S)-Threonine-Sarcosine) Carbamate] | 86 | 99 | AUC ([5]; hepatic portal vein plasma, read-out: Hepatic portal vein Prodrug AUC): 66.5 ng·h/mL; Cmax ([5]; hepatic portal vein plasma, read-out: Hepatic portal vein Prodrug Cmax): 23.7 ng/mL; comparative systemic exposure to guanfacine vs guanfacine at an equimolar dose (in words) ([5]; oral): similar; AUC ([5]; tail vein (systemic) plasma, read-out: Tail vein Prodrug AUC): 20.2 ng·h/mL; Cmax ([5]; tail vein (systemic) plasma, read-out: Tail vein Prodrug Cmax): 9.37 ng/mL; stability in porcine intestinal fluid (in words) [1]: high stability; Prodrug remaining at 3 h [1]: 95.04 ± 9.25; % change in GI transit vs vehicle ([6]; Study 2, dose 0.1 mg/kg guanfacine free base equivalents): 0%; % change in GI transit vs vehicle ([6]; Study 2, dose 0.3 mg/kg guanfacine free base equivalents): −13%; % change in GI transit vs vehicle ([6]; Study 2, dose 0.5 mg/kg guanfacine free base equivalents): −49%; prodrug levels in plasma (in words) [4]: detectable prodrug levels in plasma

The next lines start with results.

Row | % prodrug remaining following incubation for 1 h in simulated gastric fluid pH 1.1 [2] [%] | % prodrug remaining following incubation for 2 h in simulated intestinal fluid pH 6.8 [3] [%] | Compound | further results
12 | 73 | 66 | CC(C)[C@@H](N)C(=O)N[C@@H](C(=O)NC(=N)NC(=O)Cc1c(Cl)cccc1Cl)C(C)C [Compound 54, Guanfacine ((R)-Valine-(R)-Valine) Amide] | 
13 | 65 | 91 | CC(C)[C@@H](NC(=O)c1ccc(N)cc1)C(=O)NC(=N)NC(=O)Cc1c(Cl)cccc1Cl [Compound 55, Guanfacine ((R)-Valine-PABA) Amide] | 
14 | 70 | 111 | CC(C)[C@H](N)C(=O)NCCCC(=O)NC(=N)NC(=O)Cc1c(Cl)cccc1Cl [Compound 56, Guanfacine (GABA-(S)-Valine) Amide] | 
15 | 81 | 106 | N=C(NC(=O)CCCNC(=O)CC[C@H](N)C(=O)O)NC(=O)Cc1c(Cl)cccc1Cl [Compound 57, Guanfacine (GABA-(S)-γ-Glutamate) Amide] | 
16 | 96 | 99 | N=C(NC(=O)Cc1c(Cl)cccc1Cl)NC(=O)OCCNC(=O)CC[C@H](N)C(=O)O [Compound 58, Guanfacine (Ethanolamine-(S)-γ-Glutamate) Carbamate] | Prodrug remaining at 3 h [1]: 81.26 ± 4.57
17 | 92 | 100 | CC[C@H](C)[C@H](N)C(=O)NCCOC(=O)NC(=N)NC(=O)Cc1c(Cl)cccc1Cl [Compound 59, Guanfacine (Ethanolamine-(S)-Isoleucine) Carbamate] | 
18 | 81 | 97 | N=C(NC(=O)CC[C@H](NC(=O)c1ccc(C(=O)O)cc1)C(=O)O)NC(=O)Cc1c(Cl)cccc1Cl [Compound 60, Guanfacine ((S)-γ-Glutamate-Terephthalic acid) Amide] | 
19 | 88 | 93 | N=C(NC(=O)Cc1c(Cl)cccc1Cl)NC(=O)OC[C@H](NC(=O)CCN)C(=O)O [Compound 64, Guanfacine ((S)-Serine-β-Alanine) Carbamate] | 
20 | 90 | 99 | N=C(NC(=O)Cc1c(Cl)cccc1Cl)NC(=O)OCC[C@H](N)C(=O)O [Compound 65, Guafacine (S)-Homoserine Carbamate] | 
21 | 86 | 101 | CNCC(=O)N[C@@H](CCOC(=O)NC(=N)NC(=O)Cc1c(Cl)cccc1Cl)C(=O)O [Compound 66, Guanfacine ((S)-Homoserine-Sarcosine) Carbamate] | 
22 | 99 | 97 | N=C(NC(=O)Cc1c(Cl)cccc1Cl)NC(=O)OCC[C@H](NC(=O)CCN)C(=O)O [Compound 67, Guanfacine ((S)- Homoserine-β-Alanine) Carbamate] | 
23 | 86 | 75 | CC(C)(COC(=O)NC(=N)NC(=O)Cc1c(Cl)cccc1Cl)[C@@H](O)C(=O)NCCC(=O)O [Compound 68, Guanfacine Pantothenic acid Carbamate] | 
24 | 85 | 96 | CC(C)(CO)[C@@H](O)C(=O)NCCCOC(=O)NC(=N)NC(=O)Cc1c(Cl)cccc1Cl [Compound 69, Guanfacine Panthenol Carbamate] | 
25 | 64 | 93 | N=C(NC(=O)CC[C@H](NC(=O)c1ccc(N)cc1)C(=O)O)NC(=O)Cc1c(Cl)cccc1Cl [Compound 70, Guanfacine ((S)-γ-Glutamate-PABA) Amide] | 
26 | 91 | 89 | CNCC(=O)NCCOC(=O)NC(=N)NC(=O)Cc1c(Cl)cccc1Cl [Compound 71, Guanfacine (Ethanolamine-Sarcosine) Carbamate] | 
